Experimental findings from patent US20190327974A1, “SYNERGISTS FOR IMPROVED PESTICIDES” (priority 2017, published 2019) are described below.

The target in data set [1] is bacterial AmpC β-lactamase (Escherichia coli, UniProt P00811). The experiment in a line: AmpC β-lactamase selectivity. It counts as biochemical. On the procedure: To characterize the selectivity of boronic acids 1 to 5, they were assayed against AChE, the target of OP and carbamate insecticides (Table 1) as well as trypsin and bacterial AmpC β-lactamase. […] The toxicity of the hits against two human cell lines was further assessed.
Chain of bacterial AmpC β-lactamase (P00811 20-377): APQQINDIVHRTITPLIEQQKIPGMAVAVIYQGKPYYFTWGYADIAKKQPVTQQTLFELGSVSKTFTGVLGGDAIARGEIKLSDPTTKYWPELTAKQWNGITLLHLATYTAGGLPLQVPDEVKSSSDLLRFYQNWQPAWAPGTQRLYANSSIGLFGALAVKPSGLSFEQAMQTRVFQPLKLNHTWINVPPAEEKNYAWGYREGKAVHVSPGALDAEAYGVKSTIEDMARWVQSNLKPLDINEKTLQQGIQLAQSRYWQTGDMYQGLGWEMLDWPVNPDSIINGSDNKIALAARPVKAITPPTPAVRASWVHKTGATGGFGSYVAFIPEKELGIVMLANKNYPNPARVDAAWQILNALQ
To characterize the selectivity of boronic acids 1 to 5, they were assayed against the target of OP insecticides, AChE, as well as trypsin and bacterial AmpC β-lactamase (Table 1). AChE and αE7 are homologous, sharing the α/β-hydrolase fold and the same catalytic machinery, however the topology of their binding pockets is dissimilar (Jackson, C. J. et al. Structure and function of an insect α-carboxylesterase (αEsterase7) associated with insecticide resistance. Proc. Natl. Acad. Sci. U.S.A. 110, 10177-82 (2013) and Correy, G. J. et al. Mapping the Accessible Conformational Landscape of an Insect Carboxylesterase Using Conformational Ensemble Analysis and Kinetic Crystallography. Structure 24, 1-11 (2016).). Both trypsin and AmpC β-lactamase contain an activated serine nucleophile and oxyanion hole, however trypsin contains a serine-histidine-aspartic acid (Hedstrom, L. Serine protease mechanism and specificity. Chem. Rev. 102, 4501-4523 (2002).) while AmpC β-lactamase contains a serine-tyrosine-lysine catalytic triad (Dubus, A., et al. The roles of residues Tyr150, Glu272, and His314 in class C β-lactamases. Proteins Struct. Funct. Genet. 25, 473-485 (1996).).

The subject of data set [2] is HB-2 and MDA-MB-231 human cell lines. Briefly: Cell toxicity, two human cell lines HB-2 and MDA-MB-231. It counts as cell-based. Conditions: 48 h, up to 100 μM. On the procedure: FIG. 13 depicts that boronic acids show little cell toxicity. Compounds 1-5 as well as 3.9 and 3.10 were incubated for 48 h with two different human cell lines HB-2 and MDA-MB-231 at 7 concentrations up to 100 μM. Cell viability was measured after 48 h using Cell Titer Glo assay.
A seven-point, two-fold dose response series, with a 100 uM as the upper limit and a DMSO-only control point was generated using an Echo 550 liquid handler (Labcyte Inc.) in 384-well plates. Subsequently, the human breast cell lines MDA-MB-231 (tumorigenic) and HB2 (non-tumorigenic) were seeded (1000 cells/well) using a multi-drop Combi (Thermo Fisher Scientific) on top of the compounds. Plates were then incubated at 37° C. and 5% CO2 for 48 hours upon which cell viability was assessed by adding CellTiter-Glo® (Promega) to the reaction. The luminescence signal was measured on a Pherastar FS multi-mode plate reader (BMG Labtech).

Data set [3] concerns Ostrinia nubilalis (European corn borer). Briefly: CPE combined with boronic acid derivatives on corn leaves. It counts as in vivo. The settings on record: for toxicity of the boronic acid derivative alone (in words): some larvae death with 3.10 and 3.7 at 6 DAT. On the procedure:
Treatments were performed by spraying a volume of mixture corresponding to 200 l/ha. 4 boxes/condition.
Drying 1 h at 20° C.; Deposit of three leaf fragments per box on water agar (4 box/condition); Infection of each leaf fragment with 4 Ostrinia nubilalis (12 larvae/box); Incubation 18° C./28° C. […] The percentage of mortality was calculated for each assessment times. Statistical analysis of the data was performed with XLSTAT® software (ANOVAs followed by Newman-Keuls tests with a threshold of 5%, see Table below).

Data set [4] concerns Myzus persicae (Green peach aphid). Briefly: CPE combined with boronic acid derivatives on small broad bean leaves. It is filed as in vivo. Conditions: for toxicity of the boronic acid derivative alone (in words): ANOVAs followed by Newman-Keuls tests, threshold 5%; for insecticidal efficacy of CPE on addition of the compound (in words): CPE at 2.8 g a.i./ha and 5.6 g a.i./ha; for Percentage of efficacy: boronic acid, where present, 0.2 mg/ml. On the procedure: […] The treatment was performed with an agricultural nozzle (300 L per hectare) […]. A non-treated control condition were also evaluated in parallel. Statistical analysis of the data was then performed. When the leaves were totally dry, 3 leaves were sampled and infested with 3 wingless adults of M. persicae per leaf fragment.
• T+1 (DAT 1)—One day later the number of adults remaining on the leaves was counted. • T+3 (DAT 3)—3 days after treatment the aphid population was estimated; • T+7 (DAT 7)—7 days after treatment the development of aphid population was estimated.
3 bean leaves fragments per microbox*4 microbox per condition (1 condition is 1 formulation at 1 dose)*9 adult aphids per microbox*4 insecticides (3 chlorpyrifos derivates+clorpyrifos alone)*4 rates+2 controls (1 reference insecticide formulation at one dose and non-treated)*3 assessments timings (DAT+1, DAT+3 and DAT+7).

Where [5] appears, read: 1 DAT, boronic acid alone 0.2 mg/ml.
The mark [6] stands for this setting: 1 DAT, boronic acid alone 0.2 mg/ml, 12 larvae/box.
Where [7] appears, read: 3 DAT, boronic acid alone 0.2 mg/ml.
The mark [8] stands for this setting: 3 DAT, boronic acid alone 0.2 mg/ml, 12 larvae/box.
[9] abbreviates: 6 DAT, boronic acid alone 0.2 mg/ml.
[10] abbreviates: 6 DAT, boronic acid alone 0.2 mg/ml, 12 larvae/box.
Where [11] appears, read: 1 DAT, CPE 2.5 g a.i./ha, boronic acid, where present, 0.2 mg/ml.
The mark [12] stands for this setting: 1 DAT, CPE 6.24 g a.i./ha, boronic acid, where present, 0.2 mg/ml.
Where [13] appears, read: 1 DAT, CPE 15.6 g a.i./ha, boronic acid, where present, 0.2 mg/ml.
Setting [14] is: 1 DAT, CPE 39 g a.i./ha, boronic acid, where present, 0.2 mg/ml.
Setting [15] is: 3 DAT, CPE 2.5 g a.i./ha, boronic acid, where present, 0.2 mg/ml.
The mark [16] stands for this setting: 3 DAT, CPE 6.24 g a.i./ha, boronic acid, where present, 0.2 mg/ml.
Setting [17] is: 3 DAT, CPE 15.6 g a.i./ha, boronic acid, where present, 0.2 mg/ml.
[18] abbreviates: 3 DAT, CPE 39 g a.i./ha, boronic acid, where present, 0.2 mg/ml.
Where [19] appears, read: 6 DAT, CPE 2.5 g a.i./ha, boronic acid, where present, 0.2 mg/ml.
Setting [20] is: 6 DAT, CPE 6.24 g a.i./ha, boronic acid, where present, 0.2 mg/ml.
The mark [21] stands for this setting: 6 DAT, CPE 15.6 g a.i./ha, boronic acid, where present, 0.2 mg/ml.
The mark [22] stands for this setting: 6 DAT, CPE 39 g a.i./ha, boronic acid, where present, 0.2 mg/ml.

The term Ki denotes the dissociation constant of the complex between target and ligand, obtained from inhibition or displacement. Higher therefore signals a looser hold on the target. In the case of `OB(O)c1ccc(OCc2ccccc2F)c(Cl)c1` [Compound 5, 3-Chloro-4(2′-fluorobenzyloxy) phenylboronic acid], affinity in data set [1] was put at a Ki of 220 nM. In addition, the “cellular toxicity” value in data set [2] was “low toxicity against HB-2”. Moreover, the entries for the “toxicity of the boronic acid derivative alone (in words)” value in data set [3] (0.2 mg/ml) and in data set [4] were “Absence of significant toxicity” and “No significant toxicity”, respectively. For the same compound, the Percentage of efficacy in data set [3] (setting [5]) worked out at 0%; in data set [3] (setting [7]), 0%; in data set [3] (setting [9]) it was 4%. Also, the “Evaluation of Larvae number, Mean” value in data set [3] (setting [6]) was 12; in data set [3] (setting [8]) it was 12; in data set [3] (setting [10]), 10.3. The “insecticidal efficacy of CPE on addition of the compound (in words)” value in data set [4] is reported as “increased”.

As for `Cc1ccc(B(O)O)cc1Br` [Compound 1], the inhibitory constant (Ki) in data set [1] was 216 nM.

With `Cc1ccc(B(O)O)cc1OCc1ccccc1` [Compound 2], the Ki in data set [1] turned out to be 380 nM. The “cellular toxicity” value in data set [2] is listed as “low toxicity against HB-2”.

Take `CC(C)Oc1cc(Br)cc(B(O)O)c1` [Compound 3.7, 3-Bromo-5-isopropoxyphenylboronic acid]: the “toxicity of the boronic acid derivative alone (in words)” value in data set [3] (0.2 mg/ml) is on record as “Absence of significant toxicity”; in data set [4] it was “No significant toxicity”. In addition, in data set [3] (1 DAT and 3 DAT at the dose of 15.6 g a.i./ha), the “efficacy on addition of the compound compared with CPE used alone (in words)” value is listed as “increased significantly the efficacy”. Besides, the Percentage of efficacy turned out to be 3% in data set [3] (setting [5]), 4% in data set [3] (setting [7]) and 26% in data set [3] (setting [9]). The “Evaluation of Larvae number, Mean” value is recorded as 11.7 in data set [3] (setting [6]), 11 in data set [3] (setting [8]) and 8 in data set [3] (setting [10]). Moreover, the “insecticidal efficacy of CPE on addition of the compound (in words)” value in data set [4] is “increased”.

As for `OB(O)c1cc(Br)cc(N2CCOCC2)c1` [Compound 3.1], the “Evaluation of Larvae number, Mean” value stood at 12 in data set [3] (setting [6]), 12 in data set [3] (setting [8]) and 8.3 in data set [3] (setting [10]).

With `CCOP(=S)(OCC)Oc1nc(Cl)c(Cl)cc1Cl` [CPE, Chlorpyrifos-ethyl], the “Evaluation of Larvae number, Mean” value in data set [3] (setting [11]) is reported as 12; in data set [3] (setting [12]), 10.7; in data set [3] (setting [13]), 7.3; in data set [3] (setting [14]) it was 3.3; in data set [3] (setting [15]), 12; in data set [3] (setting [16]), 9.7. The “Evaluation of Larvae number, Mean” value turned out to be 7 in data set [3] (setting [17]); 2 in data set [3] (setting [18]); 8 in data set [3] (setting [19]); 4 in data set [3] (setting [20]); 3.5 in data set [3] (setting [21]); 1.3 in data set [3] (setting [22]). For the same compound, the Percentage of efficacy in data set [3] (setting [11]) is 0%; in data set [3] (setting [12]), 11%; in data set [3] (setting [13]), 40%; in data set [3] (setting [14]), 72%; in data set [3] (setting [15]), 0%; in data set [3] (setting [16]), 16%. The Percentage of efficacy is recorded as 39% in data set [3] (setting [17]); 83% in data set [3] (setting [18]); 26% in data set [3] (setting [19]); 63% in data set [3] (setting [20]); 67% in data set [3] (setting [21]); 88% in data set [3] (setting [22]). For the same compound, the Percentage of efficacy in data set [4] (1 DAT, CPE 0.7) was 38%; in data set [4] (1 DAT, CPE 1.4) it was 41%; in data set [4] (1 DAT, CPE 2.8 g a.i./ha) it was 32%; in data set [4] (1 DAT, CPE 5.6 g a.i./ha), 36%; in data set [4] (3 DAT, CPE 0.7), 20%; in data set [4] (3 DAT, CPE 1.4), 27%. Further, the Percentage of efficacy worked out at 26% in data set [4] (3 DAT, CPE 2.8 g a.i./ha); 48% in data set [4] (3 DAT, CPE 5.6 g a.i./ha); 25% in data set [4] (7 DAT, CPE 0.7); 25% in data set [4] (7 DAT, CPE 1.4); 23% in data set [4] (7 DAT, CPE 2.8 g a.i./ha); 67% in data set [4] (7 DAT, CPE 5.6 g a.i./ha). Further, the Calibration results is listed as 33% in data set [4] (1 DAT, CPE 1.4); 31% in data set [4] (1 DAT, CPE 2.8); 67% in data set [4] (1 DAT, CPE 5.6); 51% in data set [4] (3 DAT, CPE 1.4); 79% in data set [4] (3 DAT, CPE 2.8); 98% in data set [4] (3 DAT, CPE 5.6). For the same compound, the Calibration results in data set [4] (7 DAT, CPE 1.4) came to 51%; in data set [4] (7 DAT, CPE 2.8), 99%; in data set [4] (7 DAT, CPE 5.6), 100%.

Compound `OB(O)c1ccc2ccccc2c1` [Compound 4] had a Ki in data set [1] of 104 nM.
